Reference: patent publication US20250195530A1, “POLQ INHIBITORS” (ASTRAZENECA AB, priority 2022, published 2025)
Like-named read-outs stand apart in the source and are kept apart here.

Assays:
DLD-1 BRCA2−/− cells = assay: Homologous recombination synthetic lethal inhibition of proliferation, DLD-1 BRCA2-/- (Cell Titre Glo 3D); assay type: cell-based; conditions: Homo sapiens, read-out: POLQ PD Prolif Lumin BRCA2 −/− mean pIC50 (converted)
How it was run: (§1)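 Cells are seeded in RPMI 1640 (phenol red free, 10% FBS, GlutaMAX) onto pre-dosed compound (10 μM to 0.51 nM, three-fold). Plates are incubated at 37 °C, and medium plus compound are refreshed on day 6. Viability is read by CellTiter-Glo 3D at day 7 (DLD-1) or day 12 (DLD-1 BRCA2−/−), and the IC50 is fitted.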

DLD-1 cells = assay: Inhibition of proliferation, DLD-1 BRCA2 wt control (Cell Titre Glo 3D); assay type: cell-based; conditions: Homo sapiens
How it was run: as §1

[1] = DLD-1, 288 h, DLD-1 BRCA2−/− cells, 12 days
[2] = DLD-1, 168 h, DLD-1 BRCA2 wt cells, 7 days, read-out: POLQ PD Prolif Lumin DLD1 mean pIC50 (converted)
[3] = DLD-1, DLD-1 BRCA2 −/− cells, mean
[4] = DLD-1, DLD1 BRCA2 wt cells, mean, read-out: POLQ PD Prolif Lumin DLD1 mean PIC50 (converted)

| IC50 (DLD-1 cells; [2]) [nM] | IC50 (DLD-1 cells; [4]) [nM] | SMILES | IC50 (DLD-1 BRCA2−/− cells; [1]) [nM] | IC50 (DLD-1 BRCA2−/− cells; [3]) [nM] |
| --- | --- | --- | --- | --- |
| 3160 | – | C[C@@H]1CN(CCOc2ccc(-c3nc4c(OC5(C)CC5)ncnc4n3Cc3ccccc3)c(Cl)c2)CCN1 [Example R6, (R)-9-benzyl-8-(2-chloro-4-(2-(3-methylpiperazin-1-yl)ethoxy)phenyl)-6-(1-methylcyclopropoxy)-9H-purine] | 63.1 | – |
| 3160 | – | CC1(Oc2ncnc3c2nc(-c2ccc(OCCN4CCC[C@@H](O)C4)cc2Cl)n3Cc2ccccc2)CC1 [Example R7, (R)-1-(2-(4-(9-benzyl-6-(1-methylcyclopropoxy)-9H-purin-8-yl)-3-chlorophenoxy)ethyl)piperidin-3-ol] | 63.1 | – |
| 3980 | – | CC1(Oc2ncnc3c2nc(-c2ccc(OCCN4CC5(CNC(=O)C5)C4)cc2Cl)n3Cc2ccccc2)CC1 [Example R8, 2-(2-(4-(9-benzyl-6-(1-methylcyclopropoxy)-9H-purin-8-yl)-3-chlorophenoxy)ethyl)-2,6-diazaspiro[3.4]octan-7-one] | 251 | – |
| 1580 | – | C[C@@H]1CN(CCOc2ccc(-c3nc4c(OC5(C)CC5)ncnc4n3Cc3ccccc3)c(Cl)c2)C[C@H](C)N1 [Example R9, (cis)-9-benzyl-8-(2-chloro-4-(2-(3,5-dimethylpiperazin-1-yl)ethoxy)phenyl)-6-(1-methylcyclopropoxy)-9H-purine] | 50.1 | – |
| 2000 | – | C[C@H]1CNCCN1CCOc1ccc(-c2nc3c(OC4(C)CC4)ncnc3n2Cc2ccccc2)c(Cl)c1 [Example R10, (S)-9-benzyl-8-(2-chloro-4-(2-(2-methylpiperazin-1-yl)ethoxy)phenyl)-6-(1-methylcyclopropoxy)-9H-purine] | 126 | – |
| 2510 | – | C[C@@H]1CNCCN1CCOc1ccc(-c2nc3c(OC4(C)CC4)ncnc3n2Cc2ccccc2)c(Cl)c1 [Example R11, (R)-9-benzyl-8-(2-chloro-4-(2-(2-methylpiperazin-1-yl)ethoxy)phenyl)-6-(1-methylcyclopropoxy)-9H-purine] | 100 | – |
| 2510 | – | CC1(Oc2ncnc3c2nc(-c2ccc(OCCN4CCCNCC4=O)cc2Cl)n3Cc2ccccc2)CC1 [Example R12, 1-(2-(4-(9-benzyl-6-(1-methylcyclopropoxy)-9H-purin-8-yl)-3-chlorophenoxy)ethyl)-1,4-diazepan-2-one] | 100 | – |
| 1000 | – | CC1(Oc2ncnc3c2nc(-c2ccc(OCCN4CCNC5(CC5)C4)cc2Cl)n3Cc2ccccc2)CC1 [Example R17, 8-(4-(2-(4,7-diazaspiro[2.5]octan-7-yl)ethoxy)-2-chlorophenyl)-9-benzyl-6-(1-methylcyclopropoxy)-9H-purine] | 100 | – |
| 6310 | – | CC1(Oc2ncnc3c2nc(-c2ccc(OCCN4CCN[C@@H](CO)C4)cc2Cl)n3Cc2ccccc2)CC1 [Example R18, (R)-(4-(2-(4-(9-benzyl-6-(1-methylcyclopropoxy)-9H-purin-8-yl)-3-chlorophenoxy)ethyl)piperazin-2-yl)methanol] | 126 | – |
| 3980 | – | CC1(Oc2ncnc3c2nc(-c2ccc(OCCN4C[C@@H]5C[C@H]4CN5)cc2Cl)n3Cc2ccccc2)CC1 [Example R19, 8-(4-(2-((1S,4S)-2,5-diazabicyclo[2.2.1]heptan-2-yl)ethoxy)-2-chlorophenyl)-9-benzyl-6-(1-methylcyclopropoxy)-9H-purine] | 200 | – |
| 2510 | – | CC1(Oc2ncnc3c2nc(-c2ccc(OCCN4C[C@H]5C[C@@H]4CN5)cc2Cl)n3Cc2ccccc2)CC1 [Example R20, 8-(4-(2-((1R,4R)-2,5-diazabicyclo[2.2.1]heptan-2-yl)ethoxy)-2-chlorophenyl)-9-benzyl-6-(1-methylcyclopropoxy)-9H-purine] | 200 | – |
| 1580 | – | CC1(Oc2ncnc3c2nc(-c2ccc(OCCN4C[C@@H]5CC[C@H]4CN5)cc2Cl)n3Cc2ccccc2)CC1 [Example R21, (1S,4S)-2-(2-(4-(9-benzyl-6-(1-methylcyclopropoxy)-9H-purin-8-yl)-3-chlorophenoxy)ethyl)-2,5-diazabicyclo[2.2.2]octane] | 316 | – |
| 3160 | – | CC1(Oc2ncnc3c2nc(-c2ccc(OCCN4CCNCC45CC5)cc2Cl)n3Cc2ccccc2)CC1 [Example R22, 8-(4-(2-(4,7-diazaspiro[2.5]octan-4-yl)ethoxy)-2-chlorophenyl)-9-benzyl-6-(1-methylcyclopropoxy)-9H-purine] | 251 | – |
| > 10000 | – | CC1(Oc2ncnc3c2nc(-c2ccc(OCCCN4CCNCC4=O)cc2Cl)n3Cc2ccccc2)CC1 [Example S1, 1-(3-(4-(9-benzyl-6-(1-methylcyclopropoxy)-9H-purin-8-yl)-3-chlorophenoxy)propyl)piperazin-2-one] | 39.8 | – |
| 2510 | – | CC1(Oc2ncnc3c2nc(-c2ccc(OCCCN4CCNC(=O)C4)cc2Cl)n3Cc2ccccc2)CC1 [Example S2, 4-(3-(4-(9-benzyl-6-(1-methylcyclopropoxy)-9H-purin-8-yl)-3-chlorophenoxy)propyl)piperazin-2-one] | 50.1 | – |
| > 10000 | – | CC1(Oc2ncnc3c2nc(-c2ccc(OCCN4CCNCC4)cc2Cl)n3Cc2cc(C3CC3)ccn2)CC1 [Example S3, 8-(2-chloro-4-(2-(piperazin-1-yl)ethoxy)phenyl)-9-((4-cyclopropylpyridin-2-yl)methyl)-6-(1-methylcyclopropoxy)-9H-purine] | 794 | – |
| > 10000 | – | CCc1ccnc(Cn2c(-c3ccc(OCCN4CCNCC4)cc3Cl)nc3c(OC4(C)CC4)ncnc32)c1 [Example S4, 8-(2-chloro-4-(2-(piperazin-1-yl)ethoxy)phenyl)-9-((4-ethylpyridin-2-yl)methyl)-6-(1-methylcyclopropoxy)-9H-purine] | 794 | – |
| – | > 10000 | Cc1cnc(Cn2c(-c3ccc(CC(N)=O)cc3Cl)nc3c(OC4(C)CC4)ncnc32)s1 [Example T4, 2-(3-chloro-4-(6-(1-methylcyclopropoxy)-9-((5-methylthiazol-2-yl)methyl)-9H-purin-8-yl)phenyl)acetamide] | – | 1260 |
| – | > 10000 | Cc1ccnc(Cn2c(-c3ccc(S(N)(=O)=O)cc3Cl)nc3c(OC4(C)CC4)ncnc32)c1 [Example T9, 3-chloro-4-(6-(1-methylcyclopropoxy)-9-((4-methylpyridin-2-yl)methyl)-9H-purin-8-yl)benzenesulfonamide] | – | 501 |
| – | > 10000 | CC1(Oc2ncnc3c2nc(-c2cccc(C(=O)O)c2Cl)n3Cc2cccc(Cl)c2)CC1 [Example T12, 2-chloro-3-(9-(3-chlorobenzyl)-6-(1-methylcyclopropoxy)-9H-purin-8-yl)benzoic acid] | – | > 10000 |
| – | > 10000 | Cc1ccnc(Cn2c(-c3ccc(C(=O)O)cc3Cl)nc3c(OC4(C)CC4)ncnc32)c1 [Example T13, 3-chloro-4-(6-(1-methylcyclopropoxy)-9-((4-methylpyridin-2-yl)methyl)-9H-purin-8-yl)benzoic acid] | – | > 10000 |
| – | > 10000 | Cc1ccnc(Cn2c(-c3ccc(C(N)=O)cc3Cl)nc3c(OC4(C)CC4)ncnc32)c1 [Example T14, 3-chloro-4-(6-(1-methylcyclopropoxy)-9-((4-methylpyridin-2-yl)methyl)-9H-purin-8-yl)benzamide] | – | 501 |
| – | > 10000 | CC1(Oc2ncnc3c2nc(-c2ccc(OCCO)cc2Cl)n3Cc2cc(Cl)ccn2)CC1 [Example T15, 2-(3-chloro-4-(9-((4-chloropyridin-2-yl)methyl)-6-(1-methylcyclopropoxy)-9H-purin-8-yl)phenoxy)ethan-1-ol] | – | 100 |
| – | > 10000 | Cc1ccnc(Cn2c(-c3ccc(S(C)(=O)=O)cc3Cl)nc3c(OC4(C)CC4)ncnc32)c1 [Example T16, 8-(2-chloro-4-(methylsulfonyl)phenyl)-6-(1-methylcyclopropoxy)-9-((4-methylpyridin-2-yl)methyl)-9H-purine] | – | 794 |
| – | > 10000 | Cc1ccnc(Cn2c(-c3ccc(NS(C)(=O)=O)cc3Cl)nc3c(OC4(C)CC4)ncnc32)c1 [Example T29, N-(3-chloro-4-(6-(1-methylcyclopropoxy)-9-((4-methylpyridin-2-yl)methyl)-9H-purin-8-yl)phenyl)methanesulfonamide] | – | 1260 |
| – | > 10000 | CNCCOc1ccc(-c2nc3c(OC4(C)CC4)ncnc3n2Cc2ncc(C)s2)c(Cl)c1 [Example T34, 2-(3-chloro-4-(6-(1-methylcyclopropoxy)-9-((5-methylthiazol-2-yl)methyl)-9H-purin-8-yl)phenoxy)-N-methylethan-1-amine] | – | 501 |
| – | > 10000 | CC1(Oc2ncnc3c2nc(-c2cccc(OCC(=O)O)c2Cl)n3Cc2cccc(Cl)c2)CC1 [Example T41, 2-(2-chloro-3-(9-(3-chlorobenzyl)-6-(1-methylcyclopropoxy)-9H-purin-8-yl)phenoxy)acetic acid] | – | > 7940 |
| – | > 10000 | Cc1ccnc(Cn2c(-c3ccc(CC(=O)O)cc3Cl)nc3c(OC4(C)CC4)ncnc32)c1 [Example T49, 2-(3-chloro-4-(6-(1-methylcyclopropoxy)-9-((4-methylpyridin-2-yl)methyl)-9H-purin-8-yl)phenyl)acetic acid] | – | > 10000 |

| SMILES | IC50 (DLD-1 cells; [2]) [nM] | IC50 (DLD-1 cells; [4]) [nM] | IC50 (DLD-1 BRCA2−/− cells; [1]) [nM] | IC50 (DLD-1 BRCA2−/− cells; [3]) [nM] |
| --- | --- | --- | --- | --- |
| CC1(Oc2ncnc3c2nc(-c2ccc(OCCN4C5CNCC4C5)cc2Cl)n3Cc2ccccc2)CC1 [Example R15, 6-(2-(4-(9-benzyl-6-(1-methylcyclopropoxy)-9H-purin-8-yl)-3-chlorophenoxy)ethyl)-3,6-diazabicyclo[3.1.1]heptane] | 5010 | – | 501 | – |
